US20120029187A1, “HALOALKYLSULFONANILIDE DERIVATIVE” (Nissan Chemical Industries, Ltd., priority 2009, published 2012)

Experiments:
Type in all cases: in vivo
ducksalad [1] = assay: Test Example 1: herbicidal effects in preemergence treatment under submerged conditions; details: dose 2.52 g/a
Summary of the method: (§1)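 Alluvial soil was flooded to 4 cm, sown with barnyardgrass, bulrush and ducksalad, and planted with 2.5-leaf rice seedlings. On the seeding day, water-diluted emulsifiable concentrates were applied to the water surface at set doses (g/a). After three weeks in a 25 to 30° C. greenhouse, mortality was scored 0–5.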

bulrush [2] = assay: as above; details: dose 2.52 g/a
Summary of the method: as §1

barnyardgrass [3] = assay: as above; details: dose 2.52 g/a
Summary of the method: as §1

transplanted rice = assay: Test Example 1: preemergence treatment under submerged conditions, effect on crop; details: dose 2.52 g/a
Summary of the method: as §1

velvetleaf [4] = assay: Test Example 4: herbicidal effect in foliage treatment; details: dose 3.2 g/a, three weeks after application
Summary of the method: (§2)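 Post-emergence foliar spray of water-diluted emulsifiable concentrate at predetermined doses (g per are), applied to plants 14 days after sowing in sterile diluvial soil (greenhouse, 25 to 30° C). Visual scale rating of effect taken 3 weeks later.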

common lambsquater [5] = assay: as above; details: dose 3.2 g/a, three weeks after application
Summary of the method: as §2

redroot pigweed [6] = assay: as above; details: dose 3.2 g/a, three weeks after application
Summary of the method: as §2

posumbu knotweed [7] = assay: as above; details: dose 3.2 g/a, three weeks after application
Summary of the method: as §2

common ragweed [8] = assay: as above; details: dose 3.2 g/a, three weeks after application
Summary of the method: as §2

Italian ryegrass [9] = assay: as above; details: dose 3.2 g/a, three weeks after application
Summary of the method: as §2

large crabgrass [10] = assay: as above; details: dose 3.2 g/a, three weeks after application
Summary of the method: as §2

water foxtail [11] = assay: as above; details: dose 3.2 g/a, three weeks after application
Summary of the method: as §2

common chickweed [12] = assay: as above; details: dose 3.2 g/a, three weeks after application
Summary of the method: as §2

barnyardgrass [13] = assay: as above; details: dose 3.2 g/a, three weeks after application
Summary of the method: as §2

beadstraw [14] = assay: as above; details: dose 3.2 g/a, three weeks after application
Summary of the method: as §2

giant foxtail [15] = assay: as above; details: dose 3.2 g/a, three weeks after application
Summary of the method: as §2

velvetleaf [16] = assay: Test Example 3: herbicidal effects in soil treatment; details: dose 3.2 g/a
Summary of the method: (§3)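 Seeds were sown in sterilized diluvial soil and covered with about 1.5 cm of soil. Compounds, formulated as emulsifiable concentrates and diluted with water, were sprayed evenly over the soil surface at set doses in g/a. Herbicidal effect was scored on a rating scale three weeks later.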

common lambsquater [17] = assay: as above; details: dose 3.2 g/a
Summary of the method: as §3

redroot pigweed [18] = assay: as above; details: dose 3.2 g/a
Summary of the method: as §3

posumbu knotweed [19] = assay: as above; details: dose 3.2 g/a
Summary of the method: as §3

common ragweed [20] = assay: as above; details: dose 3.2 g/a
Summary of the method: as §3

Italian ryegrass [21] = assay: as above; details: dose 3.2 g/a
Summary of the method: as §3

large crabgrass [22] = assay: as above; details: dose 3.2 g/a
Summary of the method: as §3

water foxtail [23] = assay: as above; details: dose 3.2 g/a
Summary of the method: as §3

common chickweed [24] = assay: as above; details: dose 3.2 g/a
Summary of the method: as §3

barnyardgrass [25] = assay: as above; details: dose 3.2 g/a
Summary of the method: as §3

beadstraw [26] = assay: as above; details: dose 3.2 g/a
Summary of the method: as §3

giant foxtail [27] = assay: as above; details: dose 3.2 g/a
Summary of the method: as §3

ducksalad [28] = assay: Test Example 2: herbicidal effects during the vegetation period under submerged conditions; details: treatment during the vegetation period under submerged conditions; dose 2.52 g/a
Summary of the method: (§4)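 Barnyardgrass, bulrush and ducksalad were co-sown in alluvial soil flooded to 4 cm and grown in a greenhouse at 25 to 30° C. At the 1- or 2-leaf stage, water-diluted emulsifiable concentrates went onto the water surface at set doses (g/a). Herbicidal effect was scored three weeks later on a graded scale.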

bulrush [29] = assay: as above; details: treatment during the vegetation period under submerged conditions; dose 2.52 g/a
Summary of the method: as §4

barnyardgrass [30] = assay: as above; details: treatment during the vegetation period under submerged conditions; dose 2.52 g/a
Summary of the method: as §4

SMILES	C: ducksalad, herbicidal effect (evaluation scale 0-5) (ducksalad [1])	B: bulrush, herbicidal effect (evaluation scale 0-5) (bulrush [2])	A: barnyardgrass, herbicidal effect (evaluation scale 0-5) (barnyardgrass [3])	a: transplanted rice, effect on crop (evaluation scale 0-5) (transplanted rice)	I: velvetleaf, herbicidal effect (velvetleaf [4])	L: common lambsquater, herbicidal effect (common lambsquater [5])	K: redroot pigweed, herbicidal effect (redroot pigweed [6])	M: posumbu knotweed, herbicidal effect (posumbu knotweed [7])	J: common ragweed, herbicidal effect (common ragweed [8])	H: Italian ryegrass, herbicidal effect (Italian ryegrass [9])	D: large crabgrass, herbicidal effect (large crabgrass [10])	G: water foxtail, herbicidal effect (water foxtail [11])	N: common chickweed, herbicidal effect (common chickweed [12])	A: barnyardgrass, herbicidal effect (barnyardgrass [13])	O: beadstraw, herbicidal effect (beadstraw [14])	E: giant foxtail, herbicidal effect (giant foxtail [15])	I: velvetleaf, herbicidal effect (evaluation scale 0-5) (velvetleaf [16])	L: common lambsquater, herbicidal effect (evaluation scale 0-5) (common lambsquater [17])	K: redroot pigweed, herbicidal effect (evaluation scale 0-5) (redroot pigweed [18])	M: posumbu knotweed, herbicidal effect (evaluation scale 0-5) (posumbu knotweed [19])	further results
CCC(=O)N(c1ccccc1CN1COC(C)(CC(F)(F)F)CC1=O)S(=O)(=O)C(F)(F)F (centres unmarked) [II-52]	5 (mortality of 90% or above (nearly complete death))	5 (mortality of 90% or above (nearly complete death))	5 (mortality of 90% or above (nearly complete death))	0 (mortality of less than 5% (almost ineffective))	3 (mortality of at least 40% and less than 70%)	4 (mortality of at least 70% and less than 90%)	0 (mortality of less than 5% (almost ineffective))	1 (mortality of at least 5% and less than 20%)	3 (mortality of at least 40% and less than 70%)	4 (mortality of at least 70% and less than 90%)	4 (mortality of at least 70% and less than 90%)	5 (mortality of 90% or above (nearly complete death))	4 (mortality of at least 70% and less than 90%)	5 (mortality of 90% or above (nearly complete death))	5 (mortality of 90% or above (nearly complete death))	5 (mortality of 90% or above (nearly complete death))	5 (mortality of 90% or above (nearly complete death))	4 (mortality of at least 70% and less than 90%)	1 (mortality of at least 5% and less than 20%)	5 (mortality of 90% or above (nearly complete death))	J: common ragweed, herbicidal effect (evaluation scale 0-5) (common ragweed [20]): 5 (mortality of 90% or above (nearly complete death)); H: Italian ryegrass, herbicidal effect (evaluation scale 0-5) (Italian ryegrass [21]): 5 (mortality of 90% or above (nearly complete death)); D: large crabgrass, herbicidal effect (evaluation scale 0-5) (large crabgrass [22]): 5 (mortality of 90% or above (nearly complete death)); G: water foxtail, herbicidal effect (evaluation scale 0-5) (water foxtail [23]): 5 (mortality of 90% or above (nearly complete death)); N: common chickweed, herbicidal effect (evaluation scale 0-5) (common chickweed [24]): 5 (mortality of 90% or above (nearly complete death)); A: barnyardgrass, herbicidal effect (evaluation scale 0-5) (barnyardgrass [25]): 5 (mortality of 90% or above (nearly complete death)); O: beadstraw, herbicidal effect (evaluation scale 0-5) (beadstraw [26]): 0 (mortality of less than 5% (almost ineffective)); E: giant foxtail, herbicidal effect (evaluation scale 0-5) (giant foxtail [27]): 5 (mortality of 90% or above (nearly complete death)); C: ducksalad, herbicidal effect (evaluation scale 0-5) (ducksalad [28]): 5 (mortality of 90% or above (nearly complete death)); B: bulrush, herbicidal effect (evaluation scale 0-5) (bulrush [29]): 5 (mortality of 90% or above (nearly complete death)); A: barnyardgrass, herbicidal effect (evaluation scale 0-5) (barnyardgrass [30]): 5 (mortality of 90% or above (nearly complete death))
COCC1(C)CC(=O)N(Cc2ccccc2N(C(=O)OCC(C)C)S(=O)(=O)C(F)(F)F)CO1 (centres unmarked) [II-56]	5 (mortality of 90% or above (nearly complete death))	5 (mortality of 90% or above (nearly complete death))	5 (mortality of 90% or above (nearly complete death))	0 (mortality of less than 5% (almost ineffective))	5 (mortality of 90% or above (nearly complete death))	3 (mortality of at least 40% and less than 70%)	2 (mortality of at least 20% and less than 40%)	0 (mortality of less than 5% (almost ineffective))	4 (mortality of at least 70% and less than 90%)	3 (mortality of at least 40% and less than 70%)	0 (mortality of less than 5% (almost ineffective))	5 (mortality of 90% or above (nearly complete death))	4 (mortality of at least 70% and less than 90%)	5 (mortality of 90% or above (nearly complete death))	3 (mortality of at least 40% and less than 70%)	4 (mortality of at least 70% and less than 90%)	5 (mortality of 90% or above (nearly complete death))	3 (mortality of at least 40% and less than 70%)	2 (mortality of at least 20% and less than 40%)	3 (mortality of at least 40% and less than 70%)	J: common ragweed, herbicidal effect (evaluation scale 0-5) (common ragweed [20]): 4 (mortality of at least 70% and less than 90%); H: Italian ryegrass, herbicidal effect (evaluation scale 0-5) (Italian ryegrass [21]): 5 (mortality of 90% or above (nearly complete death)); D: large crabgrass, herbicidal effect (evaluation scale 0-5) (large crabgrass [22]): 4 (mortality of at least 70% and less than 90%); G: water foxtail, herbicidal effect (evaluation scale 0-5) (water foxtail [23]): 5 (mortality of 90% or above (nearly complete death)); N: common chickweed, herbicidal effect (evaluation scale 0-5) (common chickweed [24]): 5 (mortality of 90% or above (nearly complete death)); A: barnyardgrass, herbicidal effect (evaluation scale 0-5) (barnyardgrass [25]): 5 (mortality of 90% or above (nearly complete death)); O: beadstraw, herbicidal effect (evaluation scale 0-5) (beadstraw [26]): 0 (mortality of less than 5% (almost ineffective)); E: giant foxtail, herbicidal effect (evaluation scale 0-5) (giant foxtail [27]): 5 (mortality of 90% or above (nearly complete death)); C: ducksalad, herbicidal effect (evaluation scale 0-5) (ducksalad [28]): 5 (mortality of 90% or above (nearly complete death)); B: bulrush, herbicidal effect (evaluation scale 0-5) (bulrush [29]): 5 (mortality of 90% or above (nearly complete death)); A: barnyardgrass, herbicidal effect (evaluation scale 0-5) (barnyardgrass [30]): 5 (mortality of 90% or above (nearly complete death))
